Measurements: ChEMBL document CHEMBL5625167, “In vitro bioevaluation and docking study of dihydrosphingosine and ethambutol analogues against sensitive and multi-drug resistant Mycobacterium tuberculosis” (Eur J Med Chem, 2023)
≈ marks a conversion by molar mass, not a printed value. Where “and” joins values, the source holds several entries; their conditions need not be identical. Equal values may be shown once.

Experiments:
[1] = Cytotoxicity against mouse J774.A1 cells assessed as reduction in cell population incubated for 48 hrs by MTT assay; assay type: toxicity, cell-based
[2] = Cytotoxicity against African green monkey Vero cells assessed as reduction in cell population incubated for 48 hrs by MTT assay; assay type: toxicity, cell-based; conditions: chlorocebus sabaeus
[3] = system: Mycobacterium tuberculosis; test: (§1) Antimycobacterial activity against isoniazid, rifampicin, ethambutol and pyrazinamide sensitive Mycobacterium tuberculosis H37Rv ATCC 25618 assessed as inhibition of bacterial growth incubated for 7 days by resazurin dye based colorimetric method analysis; assay type: functional; conditions: H37Rv ATCC 25618, 168 h, time 7 day
[4] = system: Mycobacterium tuberculosis; test: as §1, with “Potency index, ratio of ethambutol MIC to test compound MIC for antimycobacterial” for “Antimycobacterial”; assay type: functional; conditions: time 7 day
[5] = Cytotoxicity against human HepG2 cells assessed as reduction in cell population incubated for 48 hrs by MTT assay; assay type: toxicity, cell-based
[6] = system: Mycobacterium tuberculosis; test: Antimycobacterial activity against Mycobacterium tuberculosis H37Rv ATCC 25618 assessed as fractional inhibitory concentration incubated for 7 days in presence of 2-aminoheptadecan-1-ol by resazurin dye based two-dimensional micro dilution checkerboard assay; assay type: functional; conditions: time 7 day
[7] = system: Mycolicibacterium smegmatis; test: Antimycobacterial activity against Mycobacterium smegmatis ATCC607 incubated for 24 hrs by resazurin dye based broth microdilution method; assay type: functional
[8] = system: Mycobacterium tuberculosis; test: Antimycobacterial activity against Mycobacterium tuberculosis H37Rv ATCC 25618 incubated for 7 days by resazurin dye based two-dimensional micro dilution checkerboard assay in presence of 1-(benzyloxy)heptadecan-2-amine; assay type: functional; conditions: time 7 day
[9] = system: Mycobacterium tuberculosis; test: Antimycobacterial activity against Mycobacterium tuberculosis H37Rv ATCC 25618 incubated for 7 days by resazurin dye based two-dimensional micro dilution checkerboard assay in presence of 1-((3,4,5-trimethoxybenzyl)oxy)heptadecan-2-amine; assay type: functional; conditions: time 7 day
Staphylococcus aureus = test: Antibacterial activity against Staphylococcus aureus ATCC 25923 incubated for 18 hrs by resazurin dye based broth microdilution method; assay type: functional
Klebsiella pneumoniae = test: Antibacterial activity against Klebsiella pneumoniae ATCC 13883 incubated for 18 hrs by resazurin dye based broth microdilution method; assay type: functional

SMILES | CC50 at 48 h [1] | CC50 at 48 h [2] | MIC [3] | Ratio [4] | CC50 at 48 h [5] | FIC [6] | MIC [7] | FIC [8] | FIC [9] | MIC (Staphylococcus aureus) | MIC (Klebsiella pneumoniae)
CCCCc1ccc(CCCCCCCCCC(CO)NC(=O)OC(C)(C)C)cc1 (stereo unspecified) | 15.8 µM | 31 µM | 32 µM (≈ 13.4 µg/mL) | 11 | – | – | – | – | – | – | –
CCCCCCCCCCCC(N)CO (stereo unspecified) | 2.35 µM | 40.8 µM | 64 µM (≈ 13.8 µg/mL) | 6 | – | – | – | – | – | – | –
CCCCCCCCCCCC(CO)NCC (stereo unspecified) | 10.5 µM | 37.3 µM | > 64 µM | >5.6 | – | – | – | – | – | – | –
CCCCc1ccc(CCCCCCCCCC(N)CO)cc1 (stereo unspecified) | 11.7 µM | 25.4 µM | 8 µM (≈ 2.56 µg/mL) | 45 | 45.6 µM | – | – | – | – | – | –
NCC[C@H](O)C(=O)N[C@@H]1C[C@H](N)[C@@H](O[C@H]2O[C@H](CN)[C@@H](O)[C@H](O)[C@H]2O)[C@H](O)[C@H]1O[C@H]1O[C@H](CO)[C@@H](O)[C@H](N)[C@H]1O [AMIKACIN] | – | – | 0.1 µM and 0.08 µg/mL | – | – | 0.063 | 1 µM (≈ 0.586 µg/mL) | 0.25 | 0.5 | – | –
CCCCCCCCCCCCCCCCCC(N)CO (stereo unspecified) | 9.65 µM | 53.2 µM | 8 µM (≈ 2.4 µg/mL) | 45 | 200 µM | – | 256 µM (≈ 76.7 µg/mL) | – | – | 256 µM (≈ 76.7 µg/mL) | > 512 µM
CCCCCCCCCCCCCCCCCCCC(COCc1ccccc1)NCC (stereo unspecified) | 52.3 µM | 67.8 µM | 16 µM (≈ 7.13 µg/mL) | 23 | 95.1 µM | – | 128 µM (≈ 57.1 µg/mL) | – | – | > 512 µM | > 512 µM
CCCCCCCCCCCCCCCC(CNCCCCCC)NC(=O)OC(C)(C)C (stereo unspecified) | 20.8 µM | 22.9 µM | 8 µM (≈ 3.64 µg/mL) | 45 | 86.8 µM | – | 128 µM (≈ 58.2 µg/mL) | – | – | 256 µM (≈ 116 µg/mL) | > 512 µM
CCCCCCCCCCCCCCCC(CO)N(CC)CC (stereo unspecified) | 23.3 µM | 25.1 µM | 4 µM (≈ 1.31 µg/mL) | 90 | – | – | – | – | – | – | –
CCCCCCCCCCCCCCCC(COCc1ccccc1)NCCCCCC (stereo unspecified) | 54.6 µM | 54 µM | 64 µM (≈ 28.5 µg/mL) | 6 | – | – | – | – | – | – | –
CCCCCCCCCCCCCCCC(N)CNCC (stereo unspecified) | 25.6 µM | 40.1 µM | 32 µM (≈ 9.55 µg/mL) | 11 | – | – | – | – | – | – | –
CCCCc1ccc(CCCCCC(CO)NC(=O)OC(C)(C)C)cc1 (stereo unspecified) | 14.2 µM | 51.5 µM | 64 µM (≈ 23.3 µg/mL) | 6 | – | – | – | – | – | – | –
CCCCCCCCCCCCCCCCCCCC(CO)N(CC)CC (stereo unspecified) | 102 µM | 117 µM | > 64 µM | <5.6 | – | – | > 512 µM | – | – | > 512 µM | > 512 µM
CCCCCCCCCCCCCCCC(CN)NC(=O)OC(C)(C)C (stereo unspecified) | 5.18 µM | 21.9 µM | 17.6 µM (≈ 6.52 µg/mL) | 20 | – | – | – | – | – | – | –
CCCCCCCCCCCCCCCCCC(CO)NCC (stereo unspecified) | 135 µM | 23.6 µM | 16 µM (≈ 5.24 µg/mL) | 23 | 192 µM | – | 64 µM (≈ 21 µg/mL) | – | – | 32 µM (≈ 10.5 µg/mL) | 512 µM (≈ 168 µg/mL)
C[C@H]1COc2c(N3CCN(C)CC3)c(F)cc3c(=O)c(C(=O)O)cn1c23 [LEVOFLOXACIN ANHYDROUS] | – | – | 0.35 µM and 0.13 µg/mL | – | – | 0.031 | – | 0.5 | 0.5 | – | –
CCCCCCCCCCCCCCCC(CNCC(=O)OCC)NC(=O)OC(C)(C)C (stereo unspecified) | 27.9 µM | 39 µM | 32 µM (≈ 14.6 µg/mL) | 11 | – | – | – | – | – | – | –
CC(C)(O/N=C(\C(=O)N[C@@H]1C(=O)N2C(C(=O)[O-])=C(C[n+]3ccccc3)CS[C@H]12)c1csc(N)n1)C(=O)O [CEFTAZIDIME] | – | – | – | – | – | – | – | – | – | – | 0.5 µM (≈ 0.273 µg/mL)
CCCCCCCCCCCC(CNCC)NC(=O)OC(C)(C)C (stereo unspecified) | 20.9 µM | 32.3 µM | 64 µM (≈ 21.9 µg/mL) | 6 | – | – | – | – | – | – | –
CCCCCCCCCCCCCCCC(CO)N(CCCC)CCCC (stereo unspecified) | 22.4 µM | 47.2 µM | 8 µM (≈ 3.07 µg/mL) | 45 | 82.5 µM | – | > 512 µM | – | – | – | –
CCCCc1ccc(CCCCCCCC(CO)NC(=O)OC(C)(C)C)cc1 (stereo unspecified) | 12.9 µM | 28.3 µM | 32 µM (≈ 12.5 µg/mL) | 11 | – | – | – | – | – | – | –
CCCCCCCCCCCCCCCC(N)CN (stereo unspecified) | 217 µM | 192 µM | > 64 µM | <5.6 | – | – | 512 µM (≈ 138 µg/mL) | – | – | > 512 µM | > 512 µM
